The source of these data is patent publication US12600742B2, “Markers, conjugates, compositions and methods for hypoxia imaging, mapping, and therapy” (WWIKY BIOSCIENCES INC., priority 2017, dated 2026).

For data set [1], the system named is FaDu cells. The experiment in a line: Hypoxia-selective sub-cellular localization of A-TPZ, click chemistry. The format is cell-based, human. The method, then:
FaDu cells (˜0.5 million) were seeded on coverslips in 30 mm dishes and were incubated overnight at 37° C. with 5% CO2 to get attached to the surface. Cells were then treated with increasing concentrations (1-30 μM) of drug (reconstituted in DMSO at concentration of 0.5 M) and were incubated under normoxic and hypoxic (<0.1% O2) conditions for 24 hours. Post-treatment, cells were fixed with 2% paraformaldehyde for 20 minutes followed by blocking and permeabilization in 1% BSA and 0.1% Triton-X-100 for 20 minutes. Click reaction was performed in the presence of Alexa 594 alkyne using the Click-iT Cell Reaction Buffer Kit (Thermo Fisher Scientific, no: C10269), according to manufacturer's protocol. Nuclei were counterstained with Hoechst, and images were obtained using confocal microscopy.
FaDu cells were seeded on coverslips and were incubated overnight to adhere. The cells were then treated with increasing doses of A-TPZ for 24 hours under normoxic and hypoxic (<0.1% O2) conditions. Cells were fixed in 2% paraformaldehyde and Click chemistry was performed at room temperature for 30 minutes using Alexa 594 alkyne. Nuclei were counterstained with Hoechst, and images were obtained using confocal microscopy.

The test system of data set [2] is FaDu cells. The data set can be described thus: Crystal violet staining (CVS) assay. The format is cell-based, human. The method, then:
FaDu cells (3000 cells/well) were seeded on 96-well microtitre plates and were incubated overnight at 37° C. with 5% CO2 to get attached to the surface. Next day, the cells were treated with increasing doses of drug (1-100 μM) and the plates were incubated under normoxic (20% O2) and hypoxic (0.1% O2) conditions for 72 hours. Culture medium (DMEM and low glucose DMEM) without cells was set for background, according to the experimental set up. After the required incubation period, the media was aspirated, and the plates were allowed to dry for a few minutes followed by addition of crystal violet solution for 20 minutes in order to stain the cells. Subsequently, the dye was discarded, plates were washed with water and let to dry overnight. Methanol (150 μL) was added to the wells and incubated for 20 minutes, so as to dissolve the crystals. Absorbance of the samples was measured spectrophotometrically using an ELISA plate reader at a wavelength of 520 nm. The absorbance of background wavelength (media only) was subtracted from the other absorbance results.
FIG. 10 depicts hypoxic selective cytotoxicity of A-TPZ. […] In CVS assay (i), FaDu cells (3000 cells/well) were seeded on 96 well plates and were incubated overnight to adhere. The cells were then treated with increasing doses of A-TPZ and the plates were exposed to both normoxic (20% O2) and hypoxic (0.1% O2) conditions for 72 hours. Culture medium (DMEM) without cells was set for background. Media was aspirated post-treatment followed by addition of crystal violet solution to stain the cells. Crystals were dissolved using methanol and absorbance of the samples was measured spectrophotometrically. Error bars represent the standard error of the mean. In CFA, (ii), FaDu cells (optimum density-ranging from 300 to 3000 cells) were seeded on 60 mm plates and were incubated overnight to adhere. Next day, the cells were treated with increasing A-TPZ doses and the plates were exposed to both normoxic (20% O2) and hypoxic (0.5% O2) conditions for 24 hours. […] Colonies were stained with crystal violet solution and counted. […]

The test system of data set [3] is human and murine cancer cell lines. The settings on record: literature; cited from earlier work.
In data set [4] the test system is FaDu tumors. The experiment in a line: In vivo evaluation of radiosensitization therapy by IAZA using click mapping. The arrangement: species or system Nu/Nu mice. The method, then:
Tissue sections were air dried for 25 minutes, fixed for 5 minutes in −20° C. acetone; air dried 25 minutes and blocked in PBS with 1% BSA for 20 minutes. Sections were incubated with primary antibodies for small vessel endothelium [1:100 rabbit anti-CD34 (abcam)] or hypoxia [1:100 rabbit anti-pimonidazole Hypoxyprobe)] for 2 hours at room temperature, followed by 3 five minute washes in 1×PBS. The secondary antibody (Alexafluor 647 goat anti-rabbit 1:1000 Molecular Probes with 1×DAPI to stain DNA) was incubated for 30 minutes at […] room temperature in the dark, followed by 3 five minute washes with 1×PBS. The Click-IT reaction cocktail was incubated with the sections for 30 minutes. Sections were washed 5 times with 1×PBS for 5 minutes and mounted using Mowiol 4-88 (Calbiochem) mounting media. Slides were stored at 4° C. until imaged. Images were obtained by tile scan with a Plan-Apochromat 10X/0.45 numerical aperture lens on a Zeiss 710 confocal microscope using Zen 2011 software. […]
Male Nu/Nu mice (Charles River Laboratories) aged 6 weeks were used and cared for according to the CCAC guidelines. […] The tumors were measured daily until the volume reached 0.4 cm3. […] Temperature and respiration were monitored and recorded every five minutes throughout the scans (Small animal Monitoring and Gating System, SA Instruments Inc.). […] Animals were monitored and tumors measured for up to 16 days. […]

The subject of data set [5] is FaDu xenograft tumors. The data set can be described thus: Assessment of ACN as a hypoxia tracer in tumor-bearing mice. It counts as in vivo, BALB/c nude mice. The settings on record: 80 mg/Kg intraperitoneally, 2 hours post-injection. How it is done: Female BALB/c nude mice (Charles River Laboratories) aged 6 weeks were used and cared for according to the CCAC guidelines. We used a biflanked sub-cutaneous tumor model where the tumor in the left flank was untreated (control) and the tumor in the right flank served as the ‘treatment’ group. We subcutaneously injected 6×10^6 FaDu cells in 0.1 ml of sterile 0.9% NaCl into the upper right flank to form palpable tumors. The tumors were measured daily until the volume reached 10 mm3. The mice were divided into 4 groups and injected intraperitoneally in 0.15 ml 0.9% saline with: 1-80 mg/Kg ACN, 2-80 mg/Kg pimonidazole (Hypoxyprobe), 3-80 mg/Kg ACN:pimonidazole in a 1:1 ratio and 4-0.9% saline control. Mice were sacrificed 2 hours post-injection, tumors removed and frozen in OCT. Seven micron serial sections were taken of each tumor, dried and stored at −80° C.
Tissue sections were air dried for 25 minutes, fixed for 5 minutes in −20° C. acetone; air dried 25 minutes and blocked in PBS with 1% BSA for 20 minutes. Sections were incubated with primary antibodies for small vessel endothelium [1:100 rabbit anti-CD34 (abcam)] or hypoxia [1:100 rabbit anti-pimonidazole Hypoxyprobe)] for 2 hours at room temperature, followed by 3 five minute washes in 1×PBS. […]

For data set [6], the system named is FaDu cells. The experiment in a line: Comparison of hypoxia selective uptake of ACN and Pimonidazole in vitro. The format is cell-based, human. How it is done: FaDu cells were grown on coverslips (as described above) and treated simultaneously with 100 μM ACN and 100 μM Pimonidazole. The cells were subsequently exposed to normoxic (20% Oxygen), hypoxic (1% Oxygen) or anoxic (0% Oxygen) conditions for 6 hours, and fixed in 2% PFA. Standard Pimonidazole IHC was performed as described elsewhere using an Alexafluor 647 labelled secondary antibody. Click chemistry was performed as previously described using an Alexafluor 555 conjugated alkyne followed by nuclear staining with Hoechst. Mounted coverslips on glass slides were imaged as described earlier.

With `[N-]=[N+]=NCCOCCNc1n[n+]([O-])c2ccccc2[n+]1[O-]` [A-TPZ, 3-(2-(2-Azidoethoxy)ethyl)amino-1,2,4-benzotriazine 1,4-dioxide], the “dose dependence of signal intensity” value in data set [1] (1-30 μM, hypoxia) was “dose-dependent”. Also, in data set [1] (hypoxia (<0.1 O2), 24 hours, 1-30 μM), the “click fluorescence localization in hypoxic cells” value is listed as “selective sub-cellular localization”. For the same molecule, the “click fluorescence in normoxic drug treated cells” value in data set [1] (normoxic, 24 hours) is “No fluorescence”. In addition, the “cytotoxicity under hypoxia (CVS)” value in data set [2] (0.1% O2, 72 hours, 1-100 μM) was “selective cytotoxicity in low oxygen levels”. Moreover, in data set [2] (20% O2, 72 hours), the “toxicity in the normoxic group (CVS)” value is “minimal toxicity”. In addition, in data set [2] (data not shown), the “toxicity compared to parent compound TPZ” value is “slightly less toxic”.

Take `O=[N+]([O-])c1nccn1[C@@H]1O[C@H](C[125I])[C@@H](O)[C@@H]1O` [IAZA]: in data set [3], the “toxicity to cancer cell lines (reported)” value was “low toxicity” and the “uptake by cells (reported)” value was “selectively taken up by hypoxic cells”. The “effect on tumor and hypoxia, IAZA and radiation co-treated” value in data set [4] (400 mg/Kg IAZA + single dose of 10 Gy radiation) is “both tumor shrinkage and reduced hypoxia”. The “effect on tumor hypoxia, IAZA alone” value in data set [4] (400 mg/Kg IAZA intraperitoneally, no radiation, ACN click mapping) is on record as “had no effect on hypoxia”.

In the case of `O=[N+]([O-])c1nccn1CC(O)CN1CCCCC1` (stereo not shown) [Pimonidazole, reference compound], the “localization in tumor sections” value in data set [5] is recorded as “co-localize to hypoxic areas bordering necrotic regions”. Moreover, the “staining detected by oxygen condition” value in data set [6] (100 μM of each compound, 6 h) is on record as “detected in oxygen deprived cells”. The “sub-cellular distribution of signal” value in data set [6] (hypoxic <0.1% O2 cells, 100 μM) is “mostly concentrated in the cytoplasm”.
